# Test results: patent US8895505B2, “Method of treatment of type 2 diabetes” (AdiStem Ltd., priority 2009, dated 2014)
# No end group written: not given here.
# What was measured:
# dogs with canine DM = assay: Dog diabetes mellitus trials; format: in vivo; settings: 10 mg once a week
# Description: A total of 48 dogs took part in the trials. Dogs where put into two groups of 24: one group was injected with the full 10 mg Thymosin beta 4 protein (TB4) once a week; and the other group was injected with 10 mg TB4-7 once a week for four weeks.
# Diagnosis criteria of DM and the pre-requisites for study inclusion were:
# (1) clinical signs consistent with canine DM, such as polydipsia, polyuria, polyphagia, and weight loss; (2) persistent and 24-hour fasting hyperglycemia (>200 mg/dL) for more than 2 days; (3) persistent glycosuria for more than 2 days; and (4) insulin supplementation required to maintain normal glucose levels.
# Glycosylated hemoglobin and blood glucose levels where measured at before every injection and seven days after the last injection.
# type 2 diabetic patients = assay: TB4-7 trial: randomized, double-blind, placebo-controlled 2-month trial in type 2 diabetic patients; format: in vivo, human; settings: 10 mg s.c. twice a week for 2 months
# Description: The inventors have performed a single-center, randomized, double-blind, placebo-controlled 2-month trial of twice a week s.c. injection of 10 mg of TB4-7 (a peptide having the amino acid sequence LKKTETQ (SEQ ID NO:1)) in type 2 diabetic patients inadequately treated with diet/lifestyle or stable doses of common hypoglycemics for at least 3 months. The results from an interim 2 month report of that trial is provided in this example.
# Patients with type 2 diabetes for >/=1 year were entered into 2 strata of hemoglobin A(1c) (HbA(1c)) levels: Stratum 1: 8.0% to 9.9%; and Stratum 2: 10.0% to 12.0%.
# All subjects began a 1-month single-blind placebo run-in phase, followed by randomization in a 2:1 ratio of active treatment: placebo, to 2 months of double-blind treatment with either TB4-7 or saline placebo. Concurrent oral agents were continued unchanged throughout the study.
# The primary outcome was the change in HbA(1c) from randomization; results of each stratum were analyzed independently. […] 14 subjects entered stratum 1 and 12 entered stratum 2.
# [1] = Week 0 (before first injection)
# [2] = Week 4 (seven days after last injection)
Substance,Glucose (dogs with canine DM; [1]) [mg/dL],HbA1c (dogs with canine DM; [1]) [%],Glucose (dogs with canine DM; Week 1) [mg/dL],HbA1c (dogs with canine DM; Week 1) [%],Glucose (dogs with canine DM; Week 2) [mg/dL],HbA1c (dogs with canine DM; Week 2) [%],Glucose (dogs with canine DM; Week 3) [mg/dL],HbA1c (dogs with canine DM; Week 3) [%],Glucose (dogs with canine DM; [2]) [mg/dL],HbA1c (dogs with canine DM; [2]) [%],adverse events (type 2 diabetic patients),tolerability (type 2 diabetic patients)
"Thymosin beta 4 (MSDKPDMAEIEKFDKSKLKKTETQEKNPLPSKETIEQEKQAGES; listed as Homo sapiens) [TB4, the full Thymosin beta 4 protein (TB4)]",298 ± 64,7.7 ± 2.2,310 ± 78,7.8 ± 2.3,296 ± 64,7.7 ± 2.2,275 ± 72,7.2 ± 2.6,213 ± 82,6.1 ± 2.9,–,–
"LKKTETQ [TB4-7, LKKTETQ]",–,–,–,–,–,–,–,–,–,–,No adverse events,well tolerated
